Tested on: rats treated with phencyclidine (PCP)
Experiment: not given
Settings: cited from earlier work

SMILES	brain glutamate levels
N[C@@]1(C(=O)O)CC[C@H]2[C@H](C(=O)O)[C@H]21 [LY-354740]	lowered brain glutamate levels

Same assay, conditions: hyper-locomotion and working memory deficits; cited from earlier work

SMILES	behavioral effects of PCP
N[C@@]1(C(=O)O)CC[C@H]2[C@H](C(=O)O)[C@H]21 [LY-354740]	reversed the behavioral effects of PCP

Tested on: GAD patients
Experiment: not given
Settings: cited from earlier work

SMILES	therapeutic effects for anxiety
C[C@H](N)C(=O)N[C@@]1(C(=O)O)CC[C@H]2[C@H](C(=O)O)[C@H]21 [LY-544344]	therapeutic effects

Target: human mGluR2 (Homo sapiens (Human), UniProt Q14416)
Experiment: MGluR2 cAMP assay
Type: cell-based
Settings: HEK293 cells clonally expressing human mGluR2, 1 μM forskolin, 1 μM LY-341495
Protocol: Clonally expressed human mGluR2 in HEK293 background was glutamate starved overnight in media without glutamine (GIBCO MEM 12360), containing 10% FBS, 1% penicillin streptomycin.
On the day of the assay, media was removed, cells washed with PBS, cells harvested and pelleted by centrifugation. Cell pellets were resuspended in stimulation buffer without forskolin and counted. A solution of 1.25×10^6 cells/ml was prepared and dispensed to plates using a Combi liquid handler (Thermo). A standard curve was created using a top concentration of cAMP of 1 μM in the stimulation buffer, 1:3 dilutions over 14 points in the absence of cells. Plates were read by time-resolved fluorescence at […] and a ratio was calculated via in house software, (665 nM/618 nM)*10^4. In house software converted the fluorescence value ratios to units of cAMP concentration, which is then used to calculate % inhibition for each test compound.
Compounds were added to white, standard volume 384 non-binding surface plates (Corning 3574). Cells were resuspended in stimulation buffer consisting of Hanks Balanced Salt Solution (14175-095) pH 7.0, 20 mM HEPES, 2.0 mM CaCl2, 5.0 mM MgCl2, and 1 mM IBMX (Sigma 15879), 1 μM forskolin, and 1 μM LY-341495, for 30 minutes. Buffer without forskolin was used as a negative control. Solutions of D2 and cryptate detection reagents from the CISBIO dynamic cAMP kit (62AM4PEJ) were diluted 1:40 in lysis buffer. Lysis buffer consisted of 50 mM Phosphate Buffer pH 7.0, 800 mM Potassium Fluoride, 0.2% BSA, and 1.0% Triton. Assay reaction was terminated by addition of detection reagents in lysis buffer. One hour later, plates were read on a PE Viewlux. Data was extracted, and concentration response curves generated by fitting the data to a standard 4 parameter logistic equation from which EC50 values were determined See table 1: A: <10 nM; B: 10-100 nM; C: 100-1000 nM; D: 1000-10000 nM.

Chain of human mGluR2 (Q14416 19-872): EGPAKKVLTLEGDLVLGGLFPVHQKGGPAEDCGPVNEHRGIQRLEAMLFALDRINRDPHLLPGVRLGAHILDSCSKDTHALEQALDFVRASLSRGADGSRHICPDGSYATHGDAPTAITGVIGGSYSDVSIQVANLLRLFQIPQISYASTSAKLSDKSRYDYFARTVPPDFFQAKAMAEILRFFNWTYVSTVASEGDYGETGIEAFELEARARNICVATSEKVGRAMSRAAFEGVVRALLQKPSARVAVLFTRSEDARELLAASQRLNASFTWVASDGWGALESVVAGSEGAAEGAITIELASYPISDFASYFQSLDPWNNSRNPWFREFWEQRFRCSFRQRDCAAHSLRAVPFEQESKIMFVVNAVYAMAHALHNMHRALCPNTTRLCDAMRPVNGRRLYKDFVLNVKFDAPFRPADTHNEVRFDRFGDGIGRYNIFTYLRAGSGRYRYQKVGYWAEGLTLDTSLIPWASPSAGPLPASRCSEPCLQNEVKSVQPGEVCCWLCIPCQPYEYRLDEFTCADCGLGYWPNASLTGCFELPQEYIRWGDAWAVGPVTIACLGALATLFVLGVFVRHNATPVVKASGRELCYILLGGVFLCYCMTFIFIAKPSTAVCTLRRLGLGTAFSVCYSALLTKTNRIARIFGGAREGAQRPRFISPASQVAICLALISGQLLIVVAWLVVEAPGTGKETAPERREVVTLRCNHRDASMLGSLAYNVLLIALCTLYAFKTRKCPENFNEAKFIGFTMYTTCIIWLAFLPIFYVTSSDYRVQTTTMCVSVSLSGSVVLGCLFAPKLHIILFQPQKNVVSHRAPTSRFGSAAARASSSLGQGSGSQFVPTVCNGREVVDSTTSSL

EC50	SMILES
3 nM	FC(F)(F)c1c(N2CCC(c3ccccc3)CC2)cnn2c(CC3CC3)nnc12 [Example 7, 3-(Cyclopropylmethyl)-7-(4-phenylpiperidin-1-yl)-8-(trifluoromethyl)-[1,2,4]triazolo[4,3-b]pyridazine]
201 nM	CC(C)Cc1nnc2c(Cl)c(N3CCC(c4ccccc4)CC3)cnn12 [Example 58, 8-Chloro-3-isobutyl-7-(4-phenylpiperidin-1-yl)-[1,2,4]triazolo[4,3-b]pyridazine]
782 nM	COc1c(N2CCC(O)(c3ccc(F)cc3)CC2)ncn2c(CC3CC3)nnc12 [Example 14, 1-(3-(Cyclopropylmethyl)-8-methoxy-[1,2,4]triazolo[4,3-c]pyrimidin-7-yl)-4-(4-fluorophenyl)piperidin-4-ol]
76 nM	Fc1ccc([C@@H]2C[C@H]2CNc2cnn3c(CC4CC4)nnc3c2Cl)cc1 (racemic) [Example 9, Trans-8-chloro-3-(cyclopropylmethyl)-N-((2-(4-fluorophenyl)cyclopropyl)methyl)-[1,2,4]triazolo[4,3-b]pyridazin-7-amine]
6 nM	COc1ccc(OC)c(C2CCN(c3cnn4c(CC5CC5)nnc4c3Cl)CC2)c1 [Example 35, 8-Chloro-3-(cyclopropylmethyl)-7-(4-(2,5-dimethoxyphenyl)piperidin-1-yl)-[1,2,4]triazolo[4,3-b]pyridazine]
23 nM	FC(F)(F)Cc1nnc2c(Cl)c(N3CCC(c4ccccc4C(F)(F)F)CC3)cnn12 [Example 66, 8-Chloro-3-(2,2,2-trifluoroethyl)-7-(4-(2-(trifluoromethyl)phenyl)piperidin-1-yl)-[1,2,4]triazolo[4,3-b]pyridazine]
38 nM	COc1cccc(C2CCN(c3cnn4c(CC5CC5)nnc4c3Cl)CC2)c1 [Example 28, 8-Chloro-3-(cyclopropylmethyl)-7-(4-(3-methoxyphenyl)piperidin-1-yl)-[1,2,4]triazolo[4,3-b]pyridazine]
2310 nM	Clc1c(NCC2(COc3ccccc3)CC2)cnn2c(CC3CC3)nnc12 [Example 21, 8-Chloro-3-(cyclopropylmethyl)-N-((1-(phenoxymethyl)cyclopropyl)methyl)-[1,2,4]triazolo[4,3-b]pyridazin-7-amine]
18 nM	N#Cc1ccccc1C1CCN(c2cnn3c(CC(F)(F)F)nnc3c2Cl)CC1 [Example 73, 2-(1-(8-chloro-3-(2,2,2-trifluoroethyl)-[1,2,4]triazolo[4,3-b]pyridazin-7-yl)piperidin-4-yl)benzonitrile]
3 nM	COc1cccc(F)c1C1CCN(c2cnn3c(CC4CC4)nnc3c2Cl)CC1 [Example 22, 8-Chloro-3-(cyclopropylmethyl)-7-(4-(2-fluoro-6-methoxyphenyl)piperidin-1-yl)-[1,2,4]triazolo[4,3-b]pyridazine]
62 nM	Cc1c(N2CCC(c3ccccc3)CC2)ncn2c(CC3CC3)nnc12 [Example 2, 3-(Cyclopropylmethyl)-8-methyl-7-(4-phenylpiperidin-1-yl)-[1,2,4]triazolo[4,3-c]pyrimidine]
25 nM	Fc1cccc(C2CCN(c3cnn4c(CC5CC5)nnc4c3Cl)CC2)c1 [Example 24, 8-Chloro-3-(cyclopropylmethyl)-7-(4-(3-fluorophenyl)piperidin-1-yl)-[1,2,4]triazolo[4,3-b]pyridazine]
94 nM	FC(F)(F)Cc1nnc2c(Cl)c(N3CCC(c4cccc(Cl)c4Cl)CC3)cnn12 [Example 60, 8-Chloro-7-(4-(2,3-dichlorophenyl)piperidin-1-yl)-3-(2,2,2-trifluoroethyl)-[1,2,4]triazolo[4,3-b]pyridazine]
9 nM	COc1ccc(C2CCN(c3cnn4c(CC5CC5)nnc4c3Cl)CC2)c(OC)c1 [Example 37, 8-Chloro-3-(cyclopropylmethyl)-7-(4-(2,4-dimethoxyphenyl)piperidin-1-yl)-[1,2,4]triazolo[4,3-b]pyridazine]
158 nM	Fc1ccc([C@@H]2C[C@H]2CNc2cnn3c(CC4CC4)nnc3c2Cl)cc1 [Example 10, 8-Chloro-3-(cyclopropylmethyl)-N-(((1R,2R)-2-(4-fluorophenyl)cyclopropyl)methyl)-[1,2,4]triazolo[4,3-b]pyridazin-7-amine]
42 nM	COc1cccnc1C1CCN(c2cnn3c(CC(F)(F)F)nnc3c2Cl)CC1 [Example 83, 8-Chloro-7-(4-(3-methoxypyridin-2-yl)piperidin-1-yl)-3-(2,2,2-trifluoroethyl)-[1,2,4]triazolo[4,3-b]pyridazine]
21 nM	Clc1c(NCC2Cc3ccccc3C2)cnn2c(CC3CC3)nnc12 [Example 33, 8-Chloro-3-(cyclopropylmethyl)-N-((2,3-dihydro-1H-inden-2-yl)methyl)-[1,2,4]triazolo[4,3-b]pyridazin-7-amine]
62 nM	FC(F)(F)Cc1nnc2c(Cl)c(N3CCC(c4ccccc4)CC3)cnn12 [Example 56, 8-Chloro-7-(4-phenylpiperidin-1-yl)-3-(2,2,2-trifluoroethyl)-[1,2,4]triazolo[4,3-b]pyridazine]
3 nM	Fc1ccc(F)c(C2CCN(c3cnn4c(CC(F)(F)F)nnc4c3Cl)CC2)c1OC(F)F [Example 51, 8-Chloro-7-(4-(2-(difluoromethoxy)-3,6-difluorophenyl)piperidin-1-yl)-3-(2,2,2-trifluoroethyl)-[1,2,4]triazolo[4,3-b]pyridazine]
5 nM	COc1ccc(C2CCN(c3cnn4c(CC(F)(F)F)nnc4c3Cl)CC2)c(OC)c1 [Example 38, 8-Chloro-7-(4-(2,4-dimethoxyphenyl)piperidin-1-yl)-3-(2,2,2-trifluoroethyl)-[1,2,4]triazolo[4,3-b]pyridazine]
3 nM	COc1cccc(F)c1C1CCN(c2cnn3c(CC4CC4)nnc3c2C(F)(F)F)CC1 [Example 70, 3-(Cyclopropylmethyl)-7-(4-(2-fluoro-6-methoxyphenyl)piperidin-1-yl)-8-(trifluoromethyl)-[1,2,4]triazolo[4,3-b]pyridazine]
10 nM	Fc1cc(F)c(OC(F)F)c(C2CCN(c3cnn4c(CC5CC5)nnc4c3Cl)CC2)c1 [Example 54, 8-Chloro-3-(cyclopropylmethyl)-7-(4-(2-(difluoromethoxy)-3,5-difluorophenyl)piperidin-1-yl)-[1,2,4]triazolo[4,3-b]pyridazine]
540 nM	COc1c(N2CCC(c3ccccc3)CC2)ncn2c(CC3CC3)nnc12 [Example 3, 3-(Cyclopropylmethyl)-8-methoxy-7-(4-phenylpiperidin-1-yl)-[1,2,4]triazolo[4,3-c]pyrimidine]
61 nM	Clc1c(N2CCC(Cc3ccccc3)CC2)ncn2c(CC3CC3)nnc12 [Example 8, 7-(4-Benzylpiperidin-1-yl)-8-chloro-3-(cyclopropylmethyl)-[1,2,4]triazolo[4,3-c]pyrimidine]
121 nM	Clc1c(N2CCC(c3ccccc3)CC2)cnn2c(CCC3CC3)nnc12 [Example 59, 8-Chloro-3-(2-cyclopropylethyl)-7-(4-phenylpiperidin-1-yl)-[1,2,4]triazolo[4,3-b]pyridazine]
11 nM	COc1cc(OC)nc(C2CCN(c3cnn4c(CC5CC5)nnc4c3Cl)CC2)n1 [Example 42, 8-Chloro-3-(cyclopropylmethyl)-7-(4-(4,6-dimethoxypyrimidin-2-yl)piperidin-1-yl)-[1,2,4]triazolo[4,3-b]pyridazine]
382 nM	Clc1c(N2CCC(c3ccccn3)CC2)cnn2c(CC3CC3)nnc12 [Example 79, 8-Chloro-3-(cyclopropylmethyl)-7-(4-(pyridin-2-yl)piperidin-1-yl)-[1,2,4]triazolo[4,3-b]pyridazine]

Tested on: schizophrenia
Experiment: not given
Settings: cited from earlier work

SMILES	positive and negative symptoms in schizophrenia
CSCC[C@H](N)C(=O)N[C@@]1(C(=O)O)CS(=O)(=O)[C@H]2[C@H](C(=O)O)[C@H]21 [LY-2140023]	relief of positive and negative symptoms

From patent US9682980B2, “Positive allosteric modulators of mGluR2” (BRISTOL-MYERS SQUIBB COMPANY, priority 2012, dated 2017)
